# Assay results reported in patent US6800465B2, “D-hydantoinase from Ochrobactrum anthropi” (priority 2001, dated 2004).
# B1: hydantoinase: D-hydantoinase from Ochrobactrum anthropi, SEQ ID NO: 2; in Table 3 assayed in glutaraldehyde treated cells (protein, listed as Ochrobactrum anthropi)
# chain: MAKVIKGGTVITADRTFKADVLIEGEKIVAVGDNLSGDEVIDASGCYIMPGGIDPHTHLQMPFMGTYSSDDFDTGTAAALAGGTTMVVDFVLPGSEGNLLEALQEWFQKAGKARTDYSFHMAITGWNERTFNEMAEVVKRGINTFKHFMAYKGALMVNDDEMFASFQRCAELGAMPLVHAENGDIVAQLQAKLMAEGNDGPEAHAYSRPPEVEGEATNRAIMIADQAGVPLYVVHVSCEQSHEAIRRARQKGMRVFGEPLIQHLTLDESEYHNRDWDYAARRVMSPPFRDKANQDSLWAGLAAGSLQCVATDHCAFTTEQKRYGIGNFTKIPNGTGGLEERMPVLWSRGVRTGRLTPNEFVAVTSTNIAKILNIYPQKGAVLPGADADLVIWDPEATRKVSAKTQHSSIDYNVFEGFELKGLPKMTLSRGRVAFDKGNVTAEPGDGRFIEREPNGAVNRALSQWKEIVAPRKVERSAEHMPIGV
# Key:
# [1] = system: hydantoinase; test: Effect of substrate concentration on rate of conversion by glutaraldehyde treated cells; type: biochemical, Ochrobactrum anthropi; details: pH 8.8, 42° C.; for % Conversion: 6 hours
# Procedure: Incubations were in 200 mM TAPS pH 8.8, 42° C. for 6 hours, and pH adjustments were made back to normal at least every hour.
# [2] = system: hydantoinase; test: Substrate specificity of purified recombinant hydantoinase; type: biochemical, Ochrobactrum anthropi; details: purified recombinant enzyme from E. coli BL21, compound as substrate
# Procedure: E. coli BL21 containing the hydantoinase gene was grown as described in example 4.2. The cells were centrifuged and washed with 100 mM carbonate buffer pH 9.0 and resuspended in the same buffer and ruptured by sonication. The enzyme was purified as described in example 2. The purified enzyme was tested for substrate specificity with various hydantoins as substrate.
# [3] = system: hydantoinase; test: Effect of glutaraldehyde and acetone treatment of whole cells on hydantoinase activity; type: biochemical, Ochrobactrum anthropi; details: treated whole cells; 10 mg/ml D,L-p-hydroxyphenyl hydantoin, pH 8.5, 42° C., 4 hours; Control (buffer only) = 1
# Procedure: Washed cell suspension 0.5 ml aliquots of culture was treated with 0.5 ml glutaraldehyde (G.A.) final concentration 2% in phosphate buffer pH 7.0, or with 0.5 ml G.A. 2% in phosphate buffer and 1 ml acetone, or with 0.5 ml acetone alone at room temperature for 10 minutes. The treated cells were washed with 10 ml 0.9% saline and then with saline +1 mg/ml ammonium sulfate and resuspended in 1 ml 100 mM TAPS buffer pH 8.5. Resuspended cell suspensions were incubated with 10 mg/ml D,L-p-hydroxyphenyl hydantoin in 100 mM TAPS pH 8.5 (final volume 800 μl) at 42° C. for 4 hours. Reactions were terminated with 200 μl TCA 12% and assayed.
# [4] = system: hydantoinase; test: Metal ion requirements of purified hydantoinase; type: biochemical, Ochrobactrum anthropi; set-up: Specific activity: unit not given here; details: hydantoin as substrate, metal ion at 100 mM concentration
# Procedure: Purified hydantoinase was assayed with hydantoin with the addition of the various metal ions at 100 mM concentration.
# [5] = Stability of enzyme at pH 8.8, 9.3 and 9.8; type: biochemical, Ochrobactrum anthropi; details: then assayed at pH 8.8, 42° C.
# Procedure: Glutaraldehyde treated cells from pH profile study were held at pH 8.8, 9.3 and 9.8 for about 4 hours. Solids were washed, resuspended in 25 mM TAPS pH 8.8 and 10 mg/ml D,L-p-hydroxyphenyl hydantoin and incubated at 42° C. for 4 hours. […] Optimum pH of activity at 8.8 in pH profile study was probably due to greater enzyme stability at pH 8.8 rather than pH 9.3 or 9.8.
# [6] = PI value of hydantoinase by IEF-PAGE; type: physicochemical, Ochrobactrum anthropi; details: IEF-PAGE gel, pH range of 3-9
# Procedure: Active band eluant from preparative native gel was run on the Phast System IEF-PAGE gel with a pH range of 3-9 using low MW protein markers and the gel was silver stained. PI of active band protein was determined at approximately 4.5.
# [7] = Specific activity of purified hydantoinase; type: biochemical, Ochrobactrum anthropi; details: active band eluant from preparative native gel
# Procedure: Active band eluant from preparative native gel was assayed and protein determined by Pierce Microtiter assay protocol using BSA standard. Specific activity was determined at greater than 4 IU per mg of protein.
molecule,measurement,setting,value
"O=C1NC(=O)C(c2ccc(O)cc2)N1 (racemic) [D,L-p-hydroxyphenyl hydantoin]",product formed,"[1]; substrate 5 mg/ml, 2¾ hr",1.9 mg/mL
same,product formed,"[1]; substrate 5 mg/ml, 30 min",.56 mg/mL
same,product formed,"[1]; substrate 5 mg/ml, 60 min",1.0 mg/mL
same,product formed,"[1]; substrate 5 mg/ml, 4 hr",2.1 mg/mL
same,product formed,"[1]; substrate 5 mg/ml, 6 hr",2.2 mg/mL
same,% Conversion,[1]; substrate 5 mg/ml,40%
same,product formed,"[1]; substrate 10 mg/ml, 2¾ hr",3.4 mg/mL
same,product formed,"[1]; substrate 10 mg/ml, 30 min",.75 mg/mL
same,product formed,"[1]; substrate 10 mg/ml, 60 min",1.4 mg/mL
same,product formed,"[1]; substrate 10 mg/ml, 4 hr",4.0 mg/mL
same,product formed,"[1]; substrate 10 mg/ml, 6 hr",4.4 mg/mL
same,% Conversion,[1]; substrate 10 mg/ml,40%
same,product formed,"[1]; substrate 20 mg/ml, 2¾ hr",4.0 mg/mL
same,product formed,"[1]; substrate 20 mg/ml, 30 min",.82 mg/mL
same,product formed,"[1]; substrate 20 mg/ml, 60 min",1.5 mg/mL
same,product formed,"[1]; substrate 20 mg/ml, 4 hr",6.2 mg/mL
same,product formed,"[1]; substrate 20 mg/ml, 6 hr",7.7 mg/mL
same,% Conversion,[1]; substrate 20 mg/ml,35%
same,product formed,"[1]; substrate 50 mg/ml, 2¾ hr",4.2 mg/mL
same,product formed,"[1]; substrate 50 mg/ml, 30 min",.95 mg/mL
same,product formed,"[1]; substrate 50 mg/ml, 60 min",1.6 mg/mL
same,product formed,"[1]; substrate 50 mg/ml, 4 hr",6.3 mg/mL
same,product formed,"[1]; substrate 50 mg/ml, 6 hr",9.2 mg/mL
same,% Conversion,[1]; substrate 50 mg/ml,17%
O=C1CNC(=S)N1 [2-thio hydantoin],Specific activity,[2],4.3 IU/mg
CC1NC(=O)NC1=O (centres unmarked) [5-methyl hydantoin],Specific activity,[2],10.6 IU/mg
"CC(C)=O [Acetone, acetone]",Relative Activity,[3],2.8
[Ca+2] [Ca (II)],Specific activity,[4],3.6
[Co+2] [Co (II)],Specific activity,[4],3.6
[Cu+2] [Cu (II)],Specific activity,[4],1.2
"O=C(O)CC1NC(=O)NC1=O (centres unmarked) [D,L hydantoin 5-acetic acid]",Specific activity,[2],1.8 IU/mg
[Fe+2] [Fe (II)],Specific activity,[4],9.3
same,effect on the activity of the enzyme,[4],stimulate the activity
[Fe+3] [Fe (III)],Specific activity,[4],3.8
"O=CCCCC=O [Glutaraldehyde, glutaraldehyde]",Relative Activity,[3],1.2
O=C1CNC(=O)N1 [Hydantoin],Specific activity,[2],7.5 IU/mg
[Mg+2] [Mg (II)],Specific activity,[4],5.2
[Mn+2] [Mn (II)],Specific activity,[4],7.1
same,effect on the activity of the enzyme,[4],stimulate the activity
[Ni+2] [Ni (II)],Specific activity,[4],3.6
O=C(O)CN(CCN(CC(=O)O)CC(=O)O)CC(=O)O [None (EDTA)],Specific activity,[4],4.8
O=c1cc[nH]c(=O)[nH]1 [Uracil],Specific activity,[2],1.8 IU/mg
[Zn+2] [Zn (II)],Specific activity,[4],1.8
"Hydroxymethyl 5,5-dimethyl hydantoin",Specific activity,[2],5.6 IU/mg
p-hydroxymethyl hydantoin,Specific activity,[2],1.9 IU/mg
B1,Relative Activities,[5]; held at pH 8.8 for about 4 hours,1.75
same,Relative Activities,[5]; held at pH 9.3 for about 4 hours,1.17
same,Relative Activities,[5]; held at pH 9.8 for about 4 hours,0.62
same,PI,[6],approximately 4.5
same,Specific activity,[7],greater than 4 IU per mg of protein
